Experimental data published in US10648917B2, “Luminescent compositions and applications thereof” (THE PENN STATE RESEARCH FOUNDATION, priority 2015, dated 2020).

Key:
[1] = Acid-base titration with NaOH (pKa, protolytic states); format: physicochemical
Method: The pKa values of CA-Cys were determined through acid-base titration with NaOH. Titration curves support the presence of two carboxyl groups with close pKa values for two reasons. The molar mass of CA-Cys, 241 g/mol as determined by LC-ESI-MS, matches the molar mass value of 245.6 g/mol determined by titration only when assuming a diprotic acid. Moreover, the long buffered region of the titration curve supports the presence of two carboxyl groups with close pKas that are overlapping the first inflection point, estimated to be at ½ NaOH volume of the end point.
Based on the pKa values determined from 2.4, a theoretical protolytic equilibria was established based on equations 1-3 below: […]

[2] = Halide fluorescence quenching (Stern-Volmer); format: physicochemical
Method: Absorbance Spectra were recorded on Tecan Infinite M200 Pro UV-vis spectroscopy, and fluorescence spectra were recorded on Horiba FluoroMax-4 fluorospectroscopy at concentrations below 0.1 O.D. unless otherwise indicated. Quantum Yields were measured on the Quantum φ Integrating Sphere accessory to the FluoroMax-4, while lifetime measurements were determined through the Time-Correlation Single Photon Counting (TCSPC) accessory to the FluroMax-4. TCSPC was utilized in conjunction with NanoLED pulsed diode light source with peak excitation wavelength at 352 nm and at 10,000 counts peak preset. Emission was collected at the fluorescence λmax, unless otherwise indicated. For all pH-dependence experiments, sample pH was adjusted with sulfuric acid or sodium hydroxide. For all chloride-dependent quenching experiments, magnesium chloride hexahydrate (Sigma Aldrich) was used.
When a fluorophore of [F] absorbs light energy, excitation raises a sub-population of [F] to the excited state, [F*], which then rapidly lose energy along radiative relaxation (kr) or non-radiative relaxation (knr) according to equation 7. If a quencher forms a complex with the excited fluorophore, an extra non-radiative component, kq, is added to equation 7 to account for the additional relaxation pathway that is a function of quencher concentration and its association constant.
[formula] Thus the quenching of fluorescence can be quantitatively analyzed by comparing the affected lifetimes. The Stern-Volmer (SV) relationship is used to determine kq, the bimolecular quenching rate constant for the diffusion coefficients of the fluorophore and quencher, by deriving a plot of τ0/τ versus [Q]:
[formula] Thus the linear slope of the SV plot, KSV, measures the efficiency of the quencher. Since sulfuric acid was used to study proton-induced quenching, the pH value was a better indicator of [H^+] due to incomplete dissociation of sulfuric acid at high concentrations. In the case of multiple quenchers, as will be discussed in this paper, equation 7 must include additional kq terms that result in modified form of equation 12 below:
[formula] If the two quenchers are act independently, the quencher of known quenching rate and concentration can be combined into the Y-intercept term in order to determine the quenching rate of the second, unknown quencher. […]
To translate halide quenching into quantitative sensing applications, a modified Stern-Volmer equation (Equation 14) was used to linearize the effects of two quenchers, protons and the halide being studied, on the fluorescence of CA-Cysteine. […]
Since the measured sample fluorescence is quenched by both protons and halides, the unquenched fluorescence, Io, was defined as the fluorescence of the neutral state CA-Cysteine in the absence of additional proton or halide quenchers. As mentioned above, the effects of protolytic equilibria stabilize around pH 2.2, where CA-Cysteine undergoes 99% conversion from the dianion state and is marked by constant fluorescence intensities (FIG. 13). […] Thus we chose the fluorescence intensity at pH 2.2 (in the absence of halides) as the unquenched reference signal, Io. IH,Cl in equation 23 is the sample fluorescence at the pH and halide concentration indicated. […]

In the case of `O=C(O)c1cc2n(c(=O)c1)C(C(=O)O)CS2` (stereo not drawn) [CA-Cys], the “pKa1 (3-carboxyl group)” value [1] is reported as 2.345, the “pKa2 (7-carboxyl group)” value [1] is reported as 3.41 and the “Exists at pH” value ([1]; Anion protolytic state) is reported as 2.35~3.41. For the same molecule, the “Exists at pH” value ([1]; Dianion protolytic state) was >3.41, the “Exists at pH” value ([1]; Neutral protolytic state) was <2.35 and the “fluorescence quenching by magnesium sulfate and sodium sulfate” value [2] was “did not quench fluorescence under any conditions”. For the same molecule, the “fluorescence quenching by bromide and iodide” value ([2]; compared with chloride) was “quenched by bromide and iodide at even greater affinities”, the “fluorescence quenching by magnesium chloride” value ([2]; pH 8.2) was “no significant quenching” and the “fluorescence quenching by magnesium chloride” value ([2]; strongly acidic conditions (pH 2.4)) was “quenched”.
